Columns and labels:
Bacillus pumilus AP 7 = experiment: Bacterial strains and insecticide compatibility (mixed in tubes, CFU counts); type: cell-based; conditions: Example 1; mixed for 2 wk at label rates
Description: The strains of Blend 20, each with a minimum concentration of 1×10^8 CFU per ml were individually evaluated for their compatibility with commonly used liquid insecticides. The strains were evaluated individually to make recovery of each bacterium apparent, as the colony morphologies are similar. Freshly prepared bacteria stock solutions were evaluated for their ability to survive being ‘tank’ mixed with insecticides in 50 ml centrifuge tubes with three different insecticides mixed together for 1 h, 24 h, and 1 wk, and 2 wk at 25 s ° C. under ambient light. The bacteria were evaluated for compatibility with insecticides which included three chemical groups: neonicotinoids, phenylpyrazoles, and pyrethroids. The pesticides evaluated were bifenthrin (Talstar Pro, FMC Corporation, Philadelphia, Pa.), fipronil (Termidor SC, BASF Corporation, Florham Park, N.J.), imidacloprid (Merit 2F, Bayer, Research Triangle Park, N.C.). […] Bifenthrin and fipronil were evaluated at high and low label rates. […] Bacterial populations (number of colony forming units [CFU]) in the suspensions were determined by plating 50 μl of the 10^−5 serial dilutions onto three TSA plates, incubating plates for 24 h and then counting the number of bacterial colonies on each plate.
Bacterial strains from multiple genera with known populations (minimum of 1×10^8 colony forming units (CFU)/ml (0.03 oz)) were evaluated individually for their compatibility with commonly turfgrass insecticides. […]
The strains that comprise Blend 20, each with aminimum concentration of 1×10^8 CFU per ml, were individually evaluated for their compatibility with commonly used liquid neonicotinoid insecticides. The strains within the blend were evaluated individually to make recovery of each bacterium apparent, as the colony morphologies are similar. Freshly prepared bacteria stock solutions were evaluated for survival when mixed with three different insecticides mixed in separate 50 mL centrifuge tubes for 1 and 24 h, and 1 and 2 wk at 25° C. under ambient light. […]

tawny mole crickets = experiment: Field plots: tawny mole cricket damage ratings (Cobb and Mack); type: in vivo, Neoscapteriscus vicinus Scudder; conditions: scale 0-9
Description: On 26 Mar. 2017 field plots were established at the Auburn University Turfgrass Research Unit, Auburn, Ala. over hybrid and common bermudagrass tawny mole cricket infested areas in a Marvyn loamy sand. Plots were 3 m×2 m with at least 2 m separating plots. Field plots were assessed for mole cricket damage based on the rating system of Cobb and Mack (26). A 1 m×1 m frame divided into a grid with 9 subsections was used to score the plots on a scale of 0-9, where 0 indicates no damage and 9 indicates activity in each section. After the initial assessment, plots were assigned to a treatment group based on damage ratings. […] Damage assessments were taken from seven locations (center, top left, top right, bottom left, bottom right, middle left, and middle right), with one location sampled during each damage assessment period for all treatments. The experiment evaluated four treatments, PGPR-treated (Blend 20), bifenthrin-treated, PGPR+bifenthrin-treated, and non-treated control. On 27 Mar. 2017 (Day 0) and 23 April (Day 27) plots were treated with a backpack sprayer. Bacteria-treated plots received 3 L (500 ml/m^2) freshly-prepared aqueous bacterial suspension of 1×10^7 CFU per ml. Bifenthrin-treated plots were treated at a rate of 29.6 ml per 92.9 m^2. The sprayer applied 244 ml of this mixture per plot. PGPR+ bifenthrin plots were treated with the 3 L of bacteria and 244 ml of bifenthrin mixed together in the same tank. The non-treated plots were treated with 3 L of distilled water coincident with treatment of the other plots. After treating, the plots were hand watered with 76.2 L of water (1.27 cm) to move the treatments into the root zone. The experiment was replicated six times for each treatment.
Top growth (fresh and dry mass) in the cylinder trials were analyzed separately using repeated measures of multivariate analysis of covariance (MANCOVA) due to trial being a significant factor (P<0.05, JMP Version 13. SAS Institute Inc., Cary, N.C., 1989-2007). Root fresh and dry mass, and length were analyzed using orthogonal contrasts (P<0.05, JMP Version 13. SAS Institute Inc., Cary, N.C., 1989-2007). The number of mole crickets recovered and mole cricket weights from each treatment were used as covariants. Mole cricket weights were analyzed using analysis of variance (ANOVA), Student's t-test. The number of mole crickets recovered and mole cricket weights within treatments were not significant in either PVC arena trial. For the field trial, LSMeans, Student's t-Test (LSD, P<0.05) was used to compare each sampling period's mole cricket damage ratings.

[1] = test system: Bacillus sphaericus AP 282; experiment: Bacterial strains and insecticide compatibility (mixed in tubes, CFU counts); type: cell-based; conditions: Example 1; mixed for 2 wk at label rates
Description: (§1) The strains of Blend 20, each with a minimum concentration of 1×10^8 CFU per ml were individually evaluated for their compatibility with commonly used liquid insecticides. The strains were evaluated individually to make recovery of each bacterium apparent, as the colony morphologies are similar. Freshly prepared bacteria stock solutions were evaluated for their ability to survive being ‘tank’ mixed with insecticides in 50 ml centrifuge tubes with three different insecticides mixed together for 1 h, 24 h, and 1 wk, and 2 wk at 25 s ° C. under ambient light. The bacteria were evaluated for compatibility with insecticides which included three chemical groups: neonicotinoids, phenylpyrazoles, and pyrethroids. The pesticides evaluated were bifenthrin (Talstar Pro, FMC Corporation, Philadelphia, Pa.), fipronil (Termidor SC, BASF Corporation, Florham Park, N.J.), imidacloprid (Merit 2F, Bayer, Research Triangle Park, N.C.). While Termidor SC is not used on golf courses, it was selected for convenience because the active ingredient (Fipronil) is formulated as a granular product and widely used for mole cricket management (24). Bacteria and pesticide solutions were prepared based on the label recommendations for volume of area covered (bifenthrin, imidacloprid) or amount of active ingredient per volume needed (fipronil). Bifenthrin and fipronil were evaluated at high and low label rates. Bifenthrin was mixed at a rate of 29.6 and 14.8 ml per 92.9 m^2 (7.9% active ingredient, 302 g per 3,785 ml). Imidacloprid was mixed a rate of 17 ml per 92.9 m^2 (21.4%, 907 g per 3,785 ml). Fipronil was prepared at 47.3 (0.125% dilution) and 23.65 ml (0.06% dilution) per 3,785 ml (9.1% active ingredient, 363 g per 3,785 ml). After the allotted time, the centrifuge tubes were vigorously shaken to evenly distribute bacterial cells before serial 10-fold dilutions. Serial dilutions were made of each bacterial suspension into sterile water blanks to a final dilution of 10^−5. Bacterial populations (number of colony forming units [CFU]) in the suspensions were determined by plating 50 μl of the 10^−5 serial dilutions onto three TSA plates, incubating plates for 24 h and then counting the number of bacterial colonies on each plate.
(§2) The strains that comprise Blend 20, each with aminimum concentration of 1×10^8 CFU per ml, were individually evaluated for their compatibility with commonly used liquid neonicotinoid insecticides. The strains within the blend were evaluated individually to make recovery of each bacterium apparent, as the colony morphologies are similar. Freshly prepared bacteria stock solutions were evaluated for survival when mixed with three different insecticides mixed in separate 50 mL centrifuge tubes for 1 and 24 h, and 1 and 2 wk at 25° C. under ambient light. Bacteria and pesticide solutions were prepared based on the label recommendations for volume of area covered. The pesticides evaluated were imidacloprid (Ferti-lome® Tree and Shrub Systemic Insect Drench, 1.47% active ingredient, Voluntary Purchasing Groups, Inc., Bonham, Tex., USA), imidacloprid (Merit® 2F, 21.4% active ingredient, Bayer Environmental Sciences, Research Triangle Park, N.C., USA), and imidacloprid and clothianidin (Bayer Advanced 12 Month Tree and Shrub Protect and Feed II®, 0.74% imidacloprid and 0.37% clothianidin active ingredient, Bayer Environmental Sciences). The Ferti-lome® product was mixed at a rate of 89 mL of product per 3785 mL. Merit® 2F was mixed at a rate of 17 mL of product per 92.9 m^2. Bayer Advanced Tree and Shrub Protect and Feed II® was mixed at a rate of 89 mL of product per 3785 mL.
(§3) After the allotted time, the centrifuge tubes were vigorously shaken to evenly distribute bacterial cells before completing five serial 10-fold dilutions. Serial dilutions were made of each bacterial suspension into sterile water blanks to a final dilution of 10^−5. […]

Bacillus pumilus AP 18 = experiment: as above; type: cell-based; conditions: Example 1; mixed for 2 wk at label rates
Description: as §1, §2, §3

Pseudomonas fluorescens = conditions: imidacloprid as cotton seed treatment; cited from earlier work

Question: What does the source list for `Cc1c(COC(=O)[C@@H]2[C@H](/C=C(\Cl)C(F)(F)F)C2(C)C)cccc1-c1ccccc1` (racemic) [Bifenthrin, bifenthrin]?
Answer: bacterial populations when mixed with insecticide (Bacillus pumilus AP 7): not negatively impacted; Mean Mole Cricket Damage Rating (tawny mole crickets; 0 days after treatment): 7.52a; Mean Mole Cricket Damage Rating (tawny mole crickets; 14 days after treatment): 7.95a; Mean Mole Cricket Damage Rating (tawny mole crickets; 21 days after treatment): 7.14a; Mean Mole Cricket Damage Rating (tawny mole crickets; 28 days after treatment (1 after re-treatment)): 1.71b; Mean Mole Cricket Damage Rating (tawny mole crickets; 33 days after treatment (5 after re-treatment)): 5.10ab; Mean Mole Cricket Damage Rating (tawny mole crickets; 42 days after treatment (15 after re-treatment)): 3.90ab; Mean Mole Cricket Damage Rating (tawny mole crickets; 46 days after treatment (19 after re-treatment)): 1.48b; Mean Mole Cricket Damage Rating (tawny mole crickets; 50 days after treatment (23 after re-treatment)): 1.86b; Mean Mole Cricket Damage Rating (tawny mole crickets; 56 days after treatment (29 after re-treatment)): 4.43b; bacterial populations when mixed with insecticide [1]: not negatively impacted; bacterial populations when mixed with insecticide (Bacillus pumilus AP 18): not negatively impacted

Question: For `N#Cc1nn(-c2c(Cl)cc(C(F)(F)F)cc2Cl)c(N)c1[S+]([O-])C(F)(F)F` (stereo not shown) [Fipronil, fipronil], which “bacterial populations when mixed with insecticide” value (from here on “bacterial populations when mixed”) (Bacillus pumilus AP 7) is on record?
Answer: The value was “not negatively impacted”.

Question: What about the “bacterial populations when mixed” value [1] of the same compound?
Answer: The value was “not negatively impacted”.

Question: What about the “bacterial populations when mixed” value (Bacillus pumilus AP 18) of the same compound?
Answer: The value was “not negatively impacted”.

Question: Which “bacterial populations when mixed” value (Bacillus pumilus AP 7) does the source give for `O=[N+]([O-])NC1=NCCN1Cc1ccc(Cl)nc1` [Imidacloprid, imidacloprid] here?
Answer: Its value is “not negatively impacted”.

Question: And the “Pseudomonas fluorescens populations when mixed with pesticide or extract” value (“Pseudomonas fluorescens populations” for short) (Pseudomonas fluorescens)?
Answer: The value was “negatively impacted”.

Question: What about the “bacterial populations when mixed” value [1] of the same compound?
Answer: Its value is “not negatively impacted”.

Question: And the “bacterial populations when mixed” value (Bacillus pumilus AP 18)?
Answer: Its value is “not negatively impacted”.

Question: Which “Pseudomonas fluorescens populations” value (Pseudomonas fluorescens) does the source give for `CC[C@H](C)[C@H]1O[C@]2(C=C[C@@H]1C)C[C@@H]1C[C@@H](C/C=C(\C)[C@@H](O[C@H]3C[C@H](OC)[C@@H](O[C@H]4C[C@H](OC)[C@@H](O)[C@H](C)O4)[C@H](C)O3)[C@@H](C)/C=C/C=C3\CO[C@@H]4[C@H](O)C(C)=C[C@@H](C(=O)O1)[C@]34O)O2` [avermectin] here?
Answer: Its value is “remained stable”.

Question: For `O=C1C2CC=CCC2C(=O)N1SC(Cl)(Cl)Cl` (stereo not shown) [captan], which “Pseudomonas fluorescens populations” value (Pseudomonas fluorescens) is on record?
Answer: The value was “negatively impacted”.

Question: Which “Pseudomonas fluorescens populations” value (Pseudomonas fluorescens) does the source give for `COC(=O)Nc1nc2ccccc2[nH]1` [carbendazim] here?
Answer: The value was “not negatively impacted”.

Question: With `CNC(=O)Oc1cccc2c1OC(C)(C)C2` [carbofuran] as the compound, how does the “Pseudomonas fluorescens populations” value (Pseudomonas fluorescens) read?
Answer: Its value is “remained stable”.

Question: With `CCOP(=S)(OCC)Oc1nc(Cl)c(Cl)cc1Cl` [chlorpyriphos] as the compound, how does the “Pseudomonas fluorescens populations” value (Pseudomonas fluorescens) read?
Answer: Its value is “remained stable”.

Question: With `COC(=O)N(C(=O)N1CO[C@@]2(C(=O)OC)Cc3cc(Cl)ccc3C2=N1)c1ccc(OC(F)(F)F)cc1` [indoxacarb] as the compound, how does the “Pseudomonas fluorescens populations” value (Pseudomonas fluorescens) read?
Answer: Its value is “not”.

Question: For `CCCC1COC(Cn2cncn2)(c2ccc(Cl)cc2Cl)O1` (stereo not shown) [propiconazole], which “Pseudomonas fluorescens populations” value (Pseudomonas fluorescens) is on record?
Answer: The value was “negatively impacted”.

Question: With `CN(C)C(=S)SSC(=S)N(C)C` [thiram] as the compound, how does the “Pseudomonas fluorescens populations” value (Pseudomonas fluorescens) read?
Answer: Its value is “not negatively impacted”.

Question: For mancozeb, which “Pseudomonas fluorescens populations” value (Pseudomonas fluorescens) is on record?
Answer: Its value is “negatively impacted”.

Source: US20200187507A1, “INOCULANTS INCLUDING PLANT GROWTH PRODUCING RHIZOBACTERIA (PGPR) AND INSECTIDES FOR PROMOTING PLANT GROWTH AND HEALTH” (Auburn University, priority 2018, published 2020)
